Measured values reported in article PMC10101059, “Rational Design of Stapled Antimicrobial Peptides to Enhance Stability and In Vivo Potency against Polymicrobial Sepsis” (Microbiology Spectrum, 2023).
Bridge positions count the residues as written; N and C are the ends. Square brackets hold non-standard residues; d marks the D form. Peptide text beside a SMILES is read from it. R5 = C=CCCC[C@@](C)(N)C(=O)O

Key:
[1] = system: A. baumannii; test: DiBAC4(3) membrane depolarization assay; assay type: cell-based, Acinetobacter baumannii; conditions: compared to the blank control
Protocol: Mid-log-phase A. baumannii bacterial cells were suspended in 10 mM PBS (pH 7.4) at a density of 10^8 CFU/mL. The cell suspension was then supplemented with 25 mM glucose, followed by 15 min incubation at 37°C. Then, the cell suspension was mixed with 500 nM DiBAC4(3) and incubated for 50 min. After incubation, 90 μL of the cell suspension was transferred to a 96-well plate, and fluorescence was recorded (excitation/emission: 480/520 nm) until the signal stabilized (~40 min). […] Data for blank- and compound-treated groups were compared by plotting fluorescence as function of time ([56]).

[2] = system: human keratinocyte (HaCaT); test: alamarBlue cytotoxicity assay; assay type: cell-based; conditions: at 3.13 μM, 24 h
Protocol: (§1) (i) Cell culture. Human skin keratinocytes (HaCaT), human kidney (HK-2), and RAW 264.7 macrophage cells were obtained from the Bioresource Collection and Research Center (BCRC, Hsinchu, Taiwan). HaCaT and […] macrophage cells were cultured in Dulbecco’s modified Eagle’s medium (DMEM, Thermo Fischer, MA, USA.) supplemented with 10% FBS, penicillin (100 U/mL), and streptomycin (100 μg/mL) at 37°C under 5% CO2. HK-2 cells were cultured in glucose-free Keratinocyte serum-free medium (K-SFM) supplemented with 0.05 mg/mL bovine pituitary extract (BPE), 5 ng/mL EGF, 100 U/mL penicillin, and […] streptomycin at 37°C in 5% CO2 ([49]).
(§2) In vitro toxicity assay. The cytotoxicity of TP4-3 was evaluated by an alamarBlue assay. HaCaT, HK-2, and RAW 264.7 macrophage cells were seeded at densities of 1 × 10^4 cells/well in 96-well cell plates and treated with the indicated concentrations of TP4 and TP4-3 for 24 h (0.78 to 100 μM). Cells treated with 0.1% Triton X-100 and culture medium served as negative and positive-control groups, respectively. After incubation, the cells were washed and incubated for 2 h at 37°C with 90 μL Dulbecco’s modified Eagle medium (DMEM) containing 10 μL alamarBlue reagent. Fluorescence was recorded using a Spectra Max i3 Multi-Mode detection platform (Molecular Devices, San Jose, CA) to measure cell viability ([50], [51]).

[3] = system: human kidney cell (HK-2); test: alamarBlue cytotoxicity assay; assay type: cell-based; conditions: at 3.13 μM, 24 h
Protocol: as §1, §2

[4] = system: murine macrophage (RAW 264.7); test: alamarBlue cytotoxicity assay; assay type: cell-based; conditions: at 12.5 μM, 24 h
Protocol: as §1, §2

[5] = system: female C57BL/6 mice; test: In vivo toxicity
Protocol: The in vivo toxicity of TP4-3 was assessed in female C57BL/6 mice (BioLasco, Ilan, Taiwan) upon intravenous administration of TP4-3 (9, 45, and 60 mg/kg). […] All animals were monitored for 7 days. The number of dead animals and animal body weights were measured every 24 h. Seven days after the drug administration, blood samples were collected, and the animals were euthanized. ALT (GPT), AST (GOT), CRE, and BUN were analyzed using a dry-chemistry analyzer (Fujifilm DRI-CHEM 4000i) and commercially available kits (Fujifilm Corp., Tokyo, Japan) ([23], [54]). All animal experiments were approved by the institutional ethical committee (IACUC, Academia Sinica; ID no. 2021-12-1577 and 2021-12-1771).

CC[C@H](C)[C@H](NC(=O)[C@@H](NC(=O)[C@@H](N)Cc1ccccc1)[C@@H](C)CC)C(=O)N[C@]1(C)CCCC=CCCC[C@](C)(C(=O)NCC(=O)N[C@@H](CC(C)C)C(=O)N[C@@H](Cc2ccccc2)C(=O)N[C@@H](CCCCN)C(=O)N[C@@H](CCCCN)C(=O)N[C@@H](CCCCN)C(=O)N[C@@H](C)C(=O)NCC(=O)N[C@@H](C)C(=O)N[C@]2(C)CCCC=CCCC[C@](C)(C(=O)N[C@H](C(=O)N[C@@H](CCCCN)C(=O)N[C@@H](CCCCN)C(=O)O)[C@@H](C)CC)NC(=O)[C@H](CCCCN)NC(=O)[C@H](CCCCN)NC(=O)[C@H](CCCCN)NC2=O)NC(=O)[C@H](CO)NC(=O)[C@H](CCCCN)NC(=O)[C@H](CCCCN)NC1=O [TP4-3] (H-FII[R5]KKS[R5]GLFKKKAGA[R5]KKK[R5]IKK-OH; staple 4-8, 18-22; N-terminus and C-terminus assumed)
DiBAC4(3) fluorescence signal (membrane depolarization) [1]: substantial rise in the fluorescence signal
cell death [2]: < 10%
cell death [3]: < 10%
cell death [4]: < 10%
time to death after treatment ([5]; 60 mg/kg i.v.): ≤ 10 min
body weight ([5]; i.v. 9 or 45 mg/kg, 7 days): No significant changes in body weight
survival ([5]; i.v. doses of 9 or 45 mg/kg, 7 days): All treated animals survived
kidney (BUN, CRE) and liver (GOT, GPT) function markers ([5]; i.v., TP4-3 up to 45 mg/kg, meropenem 10 mg/kg, day 7): no obvious effects
